Measured values as given in patent US12540150B1, “Fluorogenic probe using a Mislow-Evans rearrangement for real-time imaging of hydrogen peroxide” (University of Pittsburgh—Of the Commonwealth System of …, priority 2020, dated 2026).
Several values for one entry are separate records, joined by “and”; a condition that tells them apart may be missing. Identical values can stand only once.

Key:
[1] = Fluorescence response of 1 with increasing concentrations of H2O2; conditions: 0-159 μM H2O2 solutions, phosphate pH 7 buffer, 25° C., 20 min
Protocol: To verify that 1 could quantitatively measure H2O2 concentrations, 1 was incubated with increasing concentrations of H2O2. A solution of 0-159 μM H2O2 in 5:95 MeCN/50 mM phosphate pH 7 buffer (180 μL) was added to the wells of a black 96-well plate. A solution of 100 μM 1 in MeCN (20 μL) was then added to the wells. The solutions were allowed to incubate at 25° C. for 20 min before the fluorescence was measured.

[2] = Selectivity of 1: reaction with ClO^−; conditions: for Fluorescence Intensity: pH 7, 25° C., 15 min
Protocol: Next, it was tested whether OCl^− and ONOO^− (peroxynitrite), would react with 1. A solution of 0, 1, 10, or 22 μM ONOO— in 0.3 M NaOH (20 μL) or 1, 10, 100, or 1000 μM NaOCl in water (20 μL) was added to the wells of a black 96-well plate. A solution of 10 μM 1 in DMSO (560 μL) and 5:95 MeCN/1.2 M phosphate pH 7 buffer (4.48 mL) was made; this solution (180 μL) was transferred to each of the wells. The samples were allowed to incubate at 25° C. for 15 min before the fluorescence was measured. […] This may be attributed to trace amounts of H2O2 in the ONOO^− solution.

[3] = Selectivity of 1: reaction with NO3^−; conditions: for Fluorescence: 15 min minus 0 min
Protocol: The probe 1 was then exposed to NO3^− at various concentrations. NaNO3 (30.9 mg) was dissolved in ultrapure water (2.00 mL). This solution was diluted to 10 μM, 100 μM, 1.00 mM, and 10.0 mM. H2O2 was diluted to 10 μM, 100 μM, 1.00 mM, and 10.0 mM. A solution of 100 μM 1 in ethanol (20 μL) was added to 5:95 methanol/50 mM pH 7 potassium phosphate buffer (160 μL). The NaNO3 or H2O2 solutions (20 μL) were added to the solution containing 1 and the fluorescence intensity was measured immediately and again after incubation at 25° C. for 15 min. The fluorescence change over the first 15 min was reported for NO3^− in FIG. 21 and Table 12. The fluorescence values in Table 12 are the fluorescence at 15 min minus the fluorescence at 0 min.

[4] = Selectivity of 1: reaction with NO·; conditions: for Fluorescence: 15 min minus 0 min
Protocol: The probe 1 was also exposed to NO· at various concentrations. A NO· solution was generated by the addition of H2SO4 to NaNO2. A round-bottom flask containing a saturated solution of NaNO2 was connected to a series of three bubblers and one Erlenmeyer flask; the first two bubblers contained 30% NaOH, and the third contained ultrapure water. The flask contained ultrapure water (10 mL). The solutions were degassed with argon for 30 min. Then a 2 M solution of H2SO4 (1 mL) was added to the saturated NaNO2 to produce a 1.8 mM solution of NO· (assuming saturation at 25° C.) in the flask. A solution of 10 μM 1 in DMSO (20 μL) was added to 5:95 acetonitrile/50 mM pH 7 potassium phosphate buffer (160 μL). The NO· solution (20 μL) was then added to the mixture containing 1. The fluorescence was measured immediately and again after 15 min at 25° C. Similar results as the results for NO2^− and NO3^− were obtained for NO· (FIG. 22 and Table 13). The data in Table 13 is the fluorescence at 15 min minus the fluorescence at 0 min.

[5] = Response of probe 1 to H2O2 at various pHs; conditions: for Fluorescence: 23° C., 20 min
Protocol: The probe's response to H2O2 in the pH 4-7.3 range was studied to determine whether this technology would work in acidic and neutral intracellular environments, such as lysosomes (pH 5), Golgi apparatus (pH 6.4-6.8), mitochondria (pH 6.9-8.0), and cytoplasm (pH 7.1-7.6). A solution of 50 mM phosphate pH 7.3 buffer was treated with 1.0 N HCl to adjust the pH to 7.0, 6.5, 5.9, 5.4, 4.5, or 4.1. The concentration of the resulting buffers was adjusted with water to 25 mM phosphate buffer. Solutions of 25 mM phosphate pH 7.3, 7.0, 6.5, 5.9, 5.4, 4.5, or 4.1 buffer ([…]) and 100 μM probe 1 in MeOH were treated with 100 μM, 10 μM or 0 μM H2O2 in water. The solutions were allowed to incubate at 23° C. for 20 min prior to measuring the fluorescence.

[6] = test system: RAW cells; test: Imaging of endogenous H2O2 upon ionomycin stimulation in RAW cells; assay type: cell-based
Description: After detecting exogenously added H2O2 in cells, the focus shifted to more biologically relevant, endogenous H2O2. It was attempted to monitor endogenous H2O2 production upon stimulation with ionomycin in RAW cells. […] In contrast, with probe 1, a significant response was observed within 30 s after the addition of ionomycin relative to the baseline fluorescence (FIG. 24B-C) and peaked at 48 s.

SMILES: Oc1ccc2c(c1)Oc1cc(O/C=C/C[Se]c3ccccc3)ccc1[C@@]21OCc2ccccc21 [Compound 1, (S,E)-6′-((3-(Phenylselanyl)prop-1-en-1-yl)oxy)-3H-spiro[isobenzofuran-1,9′-xanthen]-3′-ol]
- fluorescence dependence on H2O2 concentration [1]: increased linearly with H2O2 concentration
- fluorescence change with increasing concentrations of OCl^− [2]: No statistically significant increase in fluorescence intensity
- Fluorescence Intensity ([2]; 100 nM NaOCl): 33,503 and 25,413 and 28,088
- Fluorescence Intensity ([2]; 1.0 μM NaOCl): 28,551 and 25,590 and 33,211
- Fluorescence Intensity ([2]; 10 μM NaOCl): 41,611 and 35,271 and 35,308
- Fluorescence Intensity ([2]; 100 μM NaOCl): 46,362 and 40,070 and 41,695
- Fluorescence Intensity ([2]; no ROS): 30,591 and 24,478 and 26,025
- reaction with NO3^− [3]: did not react
- Fluorescence ([3]; 0 μM NO3^− or H2O2, pH 7, 25° C.): 24,359 and 26,870 and 26,226
- Fluorescence ([3]; 0.1 μM H2O2): 58,172 and 52,104 and 52,249
- Fluorescence ([3]; 0.1 μM NO3^−): 34,507 and 35,439 and 40,487
- Fluorescence ([3]; 1 μM H2O2): 266,770 and 242,313 and 222,834
- Fluorescence ([3]; 1 μM NO3^−): 43,966 and 35,385 and 47,433
- reaction with NO· [4]: did not react
- Fluorescence ([4]; 0 μM NO· or H2O2, pH 7, 25° C.): 4,567 and 5,018 and 6,300
- Fluorescence ([4]; 0.1 μM NO·): 5,344 and 5,827 and 5,393
- Fluorescence ([4]; 1 μM NO·): 6,268 and 5,961 and 5,430
- Fluorescence ([4]; 10 μM NO·): 6,104 and 6,207 and 5,735
- pH dependence of fluorescence signals with H2O2 ([5]; pH 4-7.3 range): higher when the pH was above 5.4
- Fluorescence ([5]; pH 4.10, 0 μM H2O2): 28,470 and 25,037 and 28,661
- Fluorescence ([5]; pH 4.10, 1 μM H2O2): 35,884 and 30,492 and 30,471
- Fluorescence ([5]; pH 4.10, 10 μM H2O2): 51,632 and 54,097 and 52,472
- Fluorescence ([5]; pH 4.50, 0 μM H2O2): 29,770 and 29,064 and 29,069
- Fluorescence ([5]; pH 4.50, 1 μM H2O2): 40,599 and 31,790 and 33,283
- Fluorescence ([5]; pH 4.50, 10 μM H2O2): 55,577 and 54,961 and 56,315
- Fluorescence ([5]; pH 5.40, 0 μM H2O2): 56,192 and 56,334 and 52,671
- Fluorescence ([5]; pH 5.40, 1 μM H2O2): 61,365 and 63,294 and 60,943
- Fluorescence ([5]; pH 5.40, 10 μM H2O2): 106,516 and 107,311 and 103,354
- Fluorescence ([5]; pH 5.90, 0 μM H2O2): 87,499 and 89,708 and 90,424
- Fluorescence ([5]; pH 5.90, 1 μM H2O2): 113,703 and 111,368 and 107,545
- Fluorescence ([5]; pH 5.90, 10 μM H2O2): 167,836 and 187,633 and 154,515
- Fluorescence ([5]; pH 6.50, 0 μM H2O2): 155,151 and 183,747 and 149,421
- Fluorescence ([5]; pH 6.50, 1 μM H2O2): 203,661 and 188,050 and 184,986
- Fluorescence ([5]; pH 6.50, 10 μM H2O2): 332,896 and 341,948 and 335,544
- Fluorescence ([5]; pH 7.00, 0 μM H2O2): 199,101 and 207,136 and 187,676
- Fluorescence ([5]; pH 7.00, 1 μM H2O2): 247,464 and 221,499 and 229,530
- Fluorescence ([5]; pH 7.00, 10 μM H2O2): 389,464 and 369,467 and 390,006
- Fluorescence ([5]; pH 7.30, 0 μM H2O2): 189,898 and 183,424 and 169,054
- Fluorescence ([5]; pH 7.30, 1 μM H2O2): 228,368 and 208,913 and 186,665
- Fluorescence ([5]; pH 7.30, 10 μM H2O2): 373,555 and 388,584 and 401,912
- time of fluorescence peak after the addition of ionomycin [6]: 48 s
- time to significant response after the addition of ionomycin ([6]; 0.5 μM 1, ionomycin 10 μM): ≤ 30 s
